US10308595B2, “Albicidin derivatives, their use and synthesis” (priority 2013, dated 2019)
Read-outs that look alike come from different tables or passages of the source.

Experiments:
Type in all cases: cell-based
[1] = tested on: Escherichia coli K12 (W1130); experiment: Test agar plates (disc diffusion), diameter of inhibition area; settings: 10 μl per test disc, "—" no activity detected
Protocol: (§1) The dry compounds were dissolved in DMSO (1 mg/ml) and the so obtained stock solution was diluted with sterilized Millipore water 1:10 and 1:100
(§2) 20 μl of cryo stock of each strain were inoculated to 20 ml of Mueller-Hinton medium and grown overnight at 30° C. or 37° C. on a vertical shaker with 160 rpm. The inoculum for the test was adjusted by the 0.5 McFarland Standard (OD625 from 0.08 to 0.1)
Escherichia coli K12 (W1130) [gram. Neg.] Medium: MHB/37° C.
(§3) Every plate is prepared by pouring 10 ml Mueller-Hinton agar into standard petri dishes (diam 94 mm). The so obtained Mueller-Hinton plates are overlayed with 4 ml Mueller-Hinton soft agar containing 100 μl suspension of the test strain.
(§4) After the soft agar turned solid, sterile susceptibility test discs were circular placed on the agar and on every test disc 10 μl compound was added. Each concentration is tested in triplicate. The agar dishes were incubated for 18 hours at a temperature of 30° C. or 37° C. Results are obtained by measuring the diameter of inhibition area around each test disc.

[2] = tested on: Micrococcus luteus DSM1790; experiment: as above; settings: for Antibacterial activity, diameter of inhibition area, Micrococcus luteus: 10 μl per test disc, "—" no activity detected; for zone of inhibition at 1000 µg/mL: Micrococcus luteus, DSM1790, 18 h, read-out: diameter of inhibition, Micrococcus luteus DSM1790
Protocol: as §1, §2
Micrococcus luteus DSM1790 [gram. Pos.] Medium: MHB/37° C.
as §3, §4

[3] = tested on: Bacillus subtilis DSM10; experiment: as above; settings: for Antibacterial activity, diameter of inhibition area, Bacillus subtilis DSM 10: 10 μl per test disc, "—" no activity detected; for zone of inhibition at 1000 µg/mL: Bacillus subtilis, DSM10, 18 h, read-out: diameter of inhibition, Bacillus subtilis DSM10
Protocol: as §1, §2
Bacillus subtilis DSM10 [gram. Pos.] Medium: MHB/30° C.
as §3, §4

[4] = tested on: Bacillus megaterium; experiment: as above; settings: 10 μl per test disc, "—" no activity detected
Protocol: as §1, §2
Bacillus megaterium [gram. Pos.] Medium: MHB/30° C.
as §3, §4

[5] = tested on: Mycobacterium phlei DSM750; experiment: as above; settings: concentration 1 mg/ml; 10 μl per test disc; "—" no activity detected
Protocol: as §1, §2
Mycobacterium phlei DSM750 [gram. Pos.] Medium: MHB/30° C.
as §3, §4

[6] = tested on: Staphylococcus aureus (ATCC 29213); experiment: EN-ISO standard test (ISO 20776-1), MIC
Protocol: (§5) Furthermore, compounds were tested against the following bacteria
(§6) according to EN-ISO standard (ISO 20776-1: 2006. Clinical laboratory testing and in vitro diagnostic test systems—Susceptibility testing of infectious agents and evaluation of performance of antimicrobial susceptibility test devices—Part 1:Reference method for testing the in vitro activity of antimicrobial agents against rapidly growing aerobic bacteria involved in infectious diseases; German version EN ISO 20776-1:2006. Beuth-Verlag, Berlin).

[7] = tested on: Staphylococcus aureus (PEG 10-38-22); experiment: EN-ISO standard test (ISO 20776-1), MIC
Protocol: as §5, §6

[8] = tested on: Escherichia coli (ATCC 25922, 100-2-49 and 100-2-56); experiment: EN-ISO standard test (ISO 20776-1), MIC
Protocol: as §5, §6

[9] = tested on: Escherichia coli DH5α; experiment: Test agar plates (disc diffusion), diameter of inhibition area; settings: 18 h, read-out: diameter of inhibition, Escherichia coli DH5α
Protocol: as §1, §2
Escherichia coli DH5α [gram. Neg.] Medium: MHB/37° C.
as §3, §4

[10] = tested on: Pseudomonas aeruginosa DSM1117; experiment: as above; settings: DSM1117, 18 h, read-out: diameter of inhibition, Pseudomonas aeruginosa DSM1117
Protocol: as §1, §2
Pseudomonas aeruginosa DSM1117 [gram. Neg.] Medium: MHB/37° C.
as §3, §4

[11] = tested on: Staphylococcus aureus DSM 2569; experiment: as above; settings: DSM2569, 18 h, read-out: diameter of inhibition, Staphylococcus aureus DSM 2569
Protocol: as §1, §2
Staphylococcus aureus DSM 2569 [gram. Pos.] Medium: MHB/37° C.
as §3, §4

[12] = tested on: Escherichia coli albi-res (Montpellier); experiment: as above; settings: 18 h, read-out: diameter of inhibition, Escherichia coli albi-res (Montpellier)
Protocol: as §1, §2
Escherichia coli albi-res (Montpellier) [gram. Neg.] Medium: MHB/37° C.
as §3, §4

[13] = tested on: Salmonella enteritidis (PEG-10-3-58); experiment: EN-ISO standard test (ISO 20776-1), MIC
Protocol: as §5
Salmonella enteritidis (PEG-10-3-58),
as §6

[14] = tested on: Pseudomonas aeruginosa (PEG-10-2-61); experiment: EN-ISO standard test (ISO 20776-1), MIC
Protocol: as §5
(§7) Pseudomonas aeruginosa (ATCC 27853 and PEG-10-2-61)
as §6

[15] = tested on: Pseudomonas aeruginosa (ATCC 27853); experiment: EN-ISO standard test (ISO 20776-1), MIC
Protocol: as §5, §7, §6

[16] = tested on: test strains of the agar plate tests; experiment: Test agar plates, control substance in the same tests (strains not named individually); settings: active substance 1 mg/ml
Protocol: as §1, §2, §3, §4
Test Agar Plates (Active Substance 1 mg/ml) Control Substance: […]

[17] = test agar plates, active substance 1 mg/ml, more than 1 cm or more than 2 cm
[18] = test agar plates, active substance 1 mg/ml, "more than 1 cm and more than 2 cm" [sic]
[19] = test agar plates, active substance 1 mg/ml, more than 1 cm or more than 3.9 cm [sic]

COc1c(NC(=O)c2ccc(NC(=O)c3ccc(NC(=O)[C@H](CC#N)NC(=O)c4ccc(NC(=O)/C(C)=C/c5ccc(O)cc5)cc4)cc3)c(OC)c2O)ccc(C(=O)O)c1O [A, beta-Albicidin]
1.9: Antibacterial activity, diameter of inhibition area, Escherichia coli K12 (W1130) ([1]; concentration 0.1 mg/ml)
2.6: Antibacterial activity, diameter of inhibition area, Escherichia coli K12 (W1130) ([1]; concentration 1 mg/ml)
2.8: Antibacterial activity, diameter of inhibition area, Micrococcus luteus ([2]; concentration 1 mg/ml) | Antibacterial activity, diameter of inhibition area, Bacillus subtilis DSM 10 ([3]; concentration 1 mg/ml)
1.2: Antibacterial activity, diameter of inhibition area, Bacillus megaterium ([4]; concentration 0.1 mg/ml)
1.5: Antibacterial activity, diameter of inhibition area, Mycobacterium phlei DSM 750 [5]
2.0: Antibacterial activity, diameter of inhibition area, Micrococcus luteus ([2]; concentration 0.1 mg/ml) | Antibacterial activity, diameter of inhibition area, Bacillus megaterium ([4]; concentration 1 mg/ml)
1.4: Antibacterial activity, diameter of inhibition area, Bacillus subtilis DSM 10 ([3]; concentration 0.1 mg/ml)

CN[C@@H]1[C@@H](O[C@H]2O[C@H](CO)[C@@H](N)[C@H](O)[C@H]2O)OC2C[C@@H](N)[C@@H](O[C@H]3[C@H](O)[C@@H](O)[C@H](N)C[C@@H]3N)OC2[C@@H]1O (stereo partly shown) [Apramycin, reference compound]
2.0: Antibacterial activity, diameter of inhibition area, Bacillus subtilis DSM 10 ([3]; concentration 1 mg/ml)
1.8: Antibacterial activity, diameter of inhibition area, Micrococcus luteus ([2]; concentration 1 mg/ml)
1.7: Antibacterial activity, diameter of inhibition area, Escherichia coli K12 (W1130) ([1]; concentration 1 mg/ml)
3.5: Antibacterial activity, diameter of inhibition area, Bacillus megaterium ([4]; concentration 1 mg/ml)
2.2: Antibacterial activity, diameter of inhibition area, Mycobacterium phlei DSM 750 [5]

COc1c(NC(=O)c2ccc(NC(=O)c3ccc(NC(=O)C(CC#N)NC(=O)c4ccc(NC(=O)/C(C)=C/c5ccc(F)cc5)cc4)cc3)c(OC)c2O)ccc(C(=O)O)c1O (stereo not shown) [Compound 1]
> 10 mm: zone of inhibition at 1000 µg/mL [9, 17] | zone of inhibition at 1000 µg/mL [10, 17] | zone of inhibition at 1000 µg/mL [2, 18] | zone of inhibition at 1000 µg/mL [11, 18] | zone of inhibition at 1000 µg/mL [3, 19] | zone of inhibition at 1000 µg/mL [12, 17]
good to very good: MIC values, in words [6] | MIC values, in words [7] | MIC values (minimal inhibitory concentration), in words [8] | MIC values, in words [13] | MIC values, in words [14] | MIC values, in words [15]

COc1c(NC(=O)c2ccc(NC(=O)c3ccc(NC(=O)C(CC#N)NC(=O)c4ccc(NC(=O)/C=C/c5ccc6c(c5)OCO6)cc4)cc3)c(OC)c2O)ccc(C(=O)O)c1O (stereo not shown) [Compound 5]
good to very good: MIC values, in words [6] | MIC values, in words [7] | MIC values (minimal inhibitory concentration), in words [8] | MIC values, in words [13] | MIC values, in words [14] | MIC values, in words [15]
> 10 mm: zone of inhibition at 1000 µg/mL [9, 17] | zone of inhibition at 1000 µg/mL [10, 17] | zone of inhibition at 1000 µg/mL [2, 18] | zone of inhibition at 1000 µg/mL [11, 18] | zone of inhibition at 1000 µg/mL [3, 19] | zone of inhibition at 1000 µg/mL [12, 17]

COc1c(NC(=O)c2ccc(NC(=O)c3ccc(NC(=O)C(CC#N)NC(=O)c4ccc(NC(=O)c5cscn5)cc4)cc3)c(OC)c2O)ccc(C(=O)O)c1O (stereo not shown) [Compound 16]
> 10 mm: zone of inhibition at 1000 µg/mL [9, 17] | zone of inhibition at 1000 µg/mL [2, 18] | zone of inhibition at 1000 µg/mL [11, 18] | zone of inhibition at 1000 µg/mL [3, 19] | zone of inhibition at 1000 µg/mL [12, 17]
good to very good: MIC values (minimal inhibitory concentration), in words [8] | MIC values, in words [13]

COc1c(NC(=O)c2ccc(NC(=O)c3ccc(NC(=O)C(CC#N)NC(=O)c4ccc(NC(=O)COc5ccccc5)cc4)cc3)c(OC)c2O)ccc(C(=O)O)c1O (stereo not shown) [Compound 30]
good to very good: MIC values, in words [6] | MIC values (minimal inhibitory concentration), in words [8] | MIC values, in words [13] | MIC values, in words [15]
> 10 mm: zone of inhibition at 1000 µg/mL [9] | zone of inhibition at 1000 µg/mL [10] | zone of inhibition at 1000 µg/mL [2] | zone of inhibition at 1000 µg/mL [11] | zone of inhibition at 1000 µg/mL [3] | zone of inhibition at 1000 µg/mL [12]

COc1c(NC(=O)c2ccc(NC(=O)c3ccc(NC(=O)C(CC#N)NC(=O)c4ccc(NC(=O)C5CCCCC5)cc4)cc3)c(OC)c2O)ccc(C(=O)O)c1O (stereo not shown) [Compound 35]
good to very good: MIC values (minimal inhibitory concentration), in words [8] | MIC values, in words [13] | MIC values, in words [15]
> 10 mm: zone of inhibition at 1000 µg/mL [9, 17] | zone of inhibition at 1000 µg/mL [10, 17] | zone of inhibition at 1000 µg/mL [11, 18] | zone of inhibition at 1000 µg/mL [3, 19] | zone of inhibition at 1000 µg/mL [12]

COc1c(NC(=O)c2ccc(NC(=O)c3ccc(NC(=O)C(CC#N)NC(=O)c4ccc(NC(=O)C5C6CC7CC(C6)CC5C7)cc4)cc3)c(OC)c2O)ccc(C(=O)O)c1O (stereo not shown) [Compound 36]
good to very good: MIC values, in words [6] | MIC values, in words [7] | MIC values (minimal inhibitory concentration), in words [8] | MIC values, in words [13] | MIC values, in words [14] | MIC values, in words [15]
> 10 mm: zone of inhibition at 1000 µg/mL [9, 17] | zone of inhibition at 1000 µg/mL [10, 17] | zone of inhibition at 1000 µg/mL [2, 18] | zone of inhibition at 1000 µg/mL [11, 18] | zone of inhibition at 1000 µg/mL [3, 19] | zone of inhibition at 1000 µg/mL [12]

COc1c(NC(=O)c2ccc(NC(=O)c3ccc(NC(=O)[C@H](CC#N)NC(=O)c4ccc(NC(=O)/C(C)=C/c5ccc(O)cc5)cc4)cc3)c(OC)c2O)ccc(C(=O)O)c1O [Natural albicidin, Albicidin]
more than 1 cm: diameter of inhibition, control substance in the same tests [16]
